# Reference: ChEMBL document CHEMBL1201862, “PubChem BioAssay data set” (2004)
#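 In this assay, cells in 96-well plates receive the compound at five concentrations for 48 hours. Endpoints are linearly interpolated between the surrounding concentrations. GI50 is the concentration that inhibits growth by half.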 Calls of active or inactive are those of the source. No stated cut-off is given here; in the data, active = GI50 up to about 1.1 µM and inactive = higher.
# Columns and labels:
# Assay in all cases: NCI anticancer screen, dose series, 48 h
# [1] = test system: RXF 393
# [2] = test system: SK-MEL-5
# [3] = test system: T47D
# [4] = test system: UO-31
# [5] = test system: NCI-H226
# [6] = test system: EKVX
# [7] = test system: UACC-257
# [8] = test system: RPMI-8226
# [9] = test system: SF-539
# [10] = test system: Hs-578T
# [11] = test system: SW-620
# [12] = test system: HOP-62
# [13] = test system: 786-0
# [14] = test system: LOX IMVI
# [15] = test system: SNB-19
# [16] = test system: SK-MEL-28
# [17] = test system: U-251
# [18] = test system: ACHN
# [19] = test system: SNB-75
Structure (SMILES),GI50 [1],GI50 [2],GI50 [3],GI50 [4],GI50 [5],GI50 [6],GI50 [7],GI50 [8],GI50 [9],GI50 [10],GI50 [11],GI50 [12],GI50 [13],GI50 [14],GI50 [15],GI50 [16],GI50 [17],GI50 [18],GI50 [19]
N#Cc1cnc(N)nc1NCC1(CO)CC(CCc2ccccc2)C1 (stereo not drawn),49 µM (inactive),1.72 µM (inactive),0.301 µM (active),20.3 µM (inactive),> 100 µM (inactive),35.2 µM (inactive),42.1 µM (inactive),> 100 µM (inactive),> 100 µM (inactive),> 70.8 µM (inactive),> 100 µM (inactive),58.1 µM (inactive),> 85.5 µM (inactive),5.26 µM (inactive),55.3 µM (inactive),> 100 µM (inactive),> 59.2 µM (inactive),> 33.5 µM (inactive),20.8 µM (inactive)
O=C(O)c1ccccc1CC1Cc2ccccc2C1=O (stereo not drawn),> 100 µM (inactive),> 100 µM (inactive),> 100 µM (inactive),> 100 µM (inactive),> 100 µM (inactive),> 100 µM (inactive),> 100 µM (inactive),> 100 µM (inactive),> 100 µM (inactive),> 100 µM (inactive),> 100 µM (inactive),> 100 µM (inactive),> 100 µM (inactive),> 100 µM (inactive),> 100 µM (inactive),> 100 µM (inactive),> 100 µM (inactive),> 100 µM (inactive),64.7 µM (inactive)
N#Cc1c2c(c(Nc3ccc(Cl)cc3)n3c1nc1ccccc13)CCCC2,33.7 µM (inactive),20.5 µM (inactive),33.1 µM (inactive),> 51.2 µM (inactive),> 64.3 µM (inactive),48.3 µM (inactive),48 µM (inactive),4.75 µM (inactive),21.1 µM (inactive),26.2 µM (inactive),> 61 µM (inactive),31.2 µM (inactive),26.9 µM (inactive),> 63.5 µM (inactive),23.1 µM (inactive),> 76 µM (inactive),18.5 µM (inactive),18.6 µM (inactive),28.7 µM (inactive)
O=C(Nc1ccc(Cl)cc1)NS(=O)(=O)c1c(-c2ccccc2)oc2ccccc2c1=O,> 100 µM (inactive),> 100 µM (inactive),48 µM (inactive),38.5 µM (inactive),> 100 µM (inactive),> 100 µM (inactive),> 100 µM (inactive),58.9 µM (inactive),47.9 µM (inactive),> 100 µM (inactive),> 100 µM (inactive),71.6 µM (inactive),> 100 µM (inactive),9.25 µM (inactive),> 100 µM (inactive),> 100 µM (inactive),58.2 µM (inactive),27.1 µM (inactive),> 100 µM (inactive)
O=C(n1c(=O)n(-c2ccc([N+](=O)[O-])cc2)c(=O)n1C(=O)C(Cl)(Cl)Cl)C(Cl)(Cl)Cl,> 100 µM (inactive),> 100 µM (inactive),> 100 µM (inactive),> 100 µM (inactive),> 100 µM (inactive),> 100 µM (inactive),> 100 µM (inactive),> 100 µM (inactive),> 100 µM (inactive),> 100 µM (inactive),> 100 µM (inactive),> 100 µM (inactive),> 100 µM (inactive),> 100 µM (inactive),> 100 µM (inactive),> 100 µM (inactive),> 100 µM (inactive),> 100 µM (inactive),> 100 µM (inactive)
O=c1[nH]c2c(c(=O)[nH]1)SSC2,14.5 µM (inactive),13.8 µM (inactive),11.2 µM (inactive),11.8 µM (inactive),19.4 µM (inactive),21.3 µM (inactive),4.99 µM (inactive),0.838 µM (active),3.14 µM (inactive),24.2 µM (inactive),7.19 µM (inactive),10.6 µM (inactive),4.89 µM (inactive),1.34 µM (inactive),25 µM (inactive),5.79 µM (inactive),11.8 µM (inactive),26.5 µM (inactive),17.1 µM (inactive)
O=C(O)CCC(NC(=O)c1ccc(Nc2nc3cc(C(F)(F)F)ccc3nc2C(=O)O)cc1)C(=O)O (stereo not drawn),> 100 µM (inactive),79.8 µM (inactive),48.3 µM (inactive),> 100 µM (inactive),> 100 µM (inactive),> 100 µM (inactive),> 100 µM (inactive),> 100 µM (inactive),> 100 µM (inactive),> 100 µM (inactive),> 100 µM (inactive),> 100 µM (inactive),> 100 µM (inactive),> 100 µM (inactive),> 100 µM (inactive),> 100 µM (inactive),> 100 µM (inactive),> 100 µM (inactive),> 100 µM (inactive)
